The structures appear in SMILES notation. Where two headings read alike, the source gives them in different places. Marks after values point to notes of the source that are not given here.

On the set-up of data set [1]: method as in PMID 36548517. The conditions noted are these: 0.1 M phosphate buffer (pH 2.1), 25 °C, cited from earlier work.
Details of data set [2]: method as in PMID 36548517. The conditions noted are these: phase solubility, 0.1 M phosphate buffer (pH 2.1), 25 °C, mean ± SD (n = 3); cited from earlier work.
Details of data set [3]: method as in PMID 36548517. The conditions noted are these: phase solubility, 0.1 M phosphate buffer (pH 2.1), 25 °C, mean ± SD (n = 3); cited from earlier work. The source holds these as a separate data set.
On the set-up of data set [4]: method as in PMID 36548517. The conditions noted are these: proton Y monitored, 0.1 M sodium borate/D2O, 25 °C, total concentration 1.0 × 10^−2 M; cited from earlier work.
Data set [5] in a line: Phase solubility study with αCD. The conditions noted are these: 0.1 M phosphate buffer (pH 2.1), 25 °C; for Apparent stability constant K αCD / Guest/Host Ratio αCD: phase solubility, mean ± SD (n = 3). In kind it is physicochemical. As to the method:
(§1) Phase solubility studies were conducted according to the method described by Higuchi and Connors. Briefly, 1 mL of CD solutions (0 to 14 mM, pH 2.1) were added to excess amounts of PB or related compounds placed in screw cap tubes. The resulting samples were shaken for 72 h at 25 °C and 120 rpm (Multi Shaker MMS-3020 in a temperature control chamber FMC-1000; Eyela Co., Ltd., Tokyo, Japan). The resulting suspensions were filtered through 0.2 µm membrane filters (Minisart RC 4, Sartorius Stedim Lab Ltd., Stonehouse, UK) and diluted appropriately. The solubility of PB or related compounds was determined by HPLC, and the data were used to construct phase solubility diagrams. The guest/host ratios for the systems showing BS-type solubility diagrams were estimated as the quotient of the amount of undissolved guest at the start of the plateau region and the CD concentration range corresponding to the plateau region.
(§2) HPLC measurements were performed according to a previous report using a JASCO HPLC system (Jasco Corp., Tokyo, Japan). A YMC-PACK ODS AM 303 column (5 µm, 250 mm × 4.6 mm, YMC Co., Kyoto, Japan) was used as the stationary phase and was maintained at 40 °C. […] For PC and PH, the elution program used was 0–7 min (50–100% B), 7–10 min (100% B), and 10–15 min (100–50% B) at a constant flow rate of 1 mL/min.

The nature of data set [6]: Phase solubility study with βCD. The conditions noted are these: 0.1 M phosphate buffer (pH 2.1), 25 °C, mean ± SD (n = 3). In kind it is physicochemical. The procedure:
as §1, §2

Data set [7] can be described thus: Phase solubility study with γCD. In kind it is physicochemical. The conditions noted are these: 0.1 M phosphate buffer (pH 2.1), 25 °C, mean ± SD (n = 3). The procedure:
as §1, §2

A short description of data set [8]: 1H NMR continuous variation plot with αCD. In kind it is binding. The conditions noted are these: proton Y monitored, 0.1 M sodium borate/D2O, 25 °C, total concentration 1.0 × 10^−2 M. The procedure:
^1H NMR spectra were obtained using a JEOL-A500 spectrometer (Tokyo, Japan) operating at 500 MHz in 5 mm sample tubes at 25 °C using D2O/0.1 M sodium borate (pH meter reading of 9.4) as solvent. The resonance at 4.68 to 4.75 ppm, due to residual solvents (H2O and HOD), was used as an internal reference. Chemical shifts are given as parts per million (ppm), with an accuracy of ±0.001. No external reference was used to avoid possible interactions with the CDs. The ^1H NMR signals of the guests (PB and related compounds) were assigned by 2D ^1H-^1H correlation spectroscopy (COSY), whereas those of the CDs were assigned according to a previous report. The complex stoichiometries were determined by the continuous variation method, where the total concentrations of CD and guest were kept constant at 1.0 × 10^−2 M. In addition, the changes in the chemical shift of CDs and the guest protons in their equimolar systems (5.0 × 10^−3 M) were monitored. […] The stability constant values of the complexes formed by PH were determined from the curves. Two-dimensional ROESY NMR experiments were performed for the CD-PH systems in the phase-sensitive mode using the same spectrometer. Each spectrum consisted of a matrix of F2 by F1 covering a sweep width of 5000 Hz with 36 scans. The spin-lock mixing time was 800 ms, with a relaxation delay of 4 s, and a 90° pulse width of 11.8 µs. The concentration of guest and host were 2.5 × 10^−2 M/1.0 × 10^−1 M (PH/αCD), 1.5 × 10^−2 M/2.5 × 10^−2 M (PH/βCD), and 2.5 × 10^−2 M/2.5 × 10^−2 M (PH/γCD). The stability constants (K1:1) of the PH–CD complexes were estimated by analyzing the first-order dependences of the chemical shift change of PH protons on CD concentration using Equation (2):(2) δobs=δ0+δ1K1:1CDf/1+K1:1CDf where δ0 and δobs are chemical shifts of PH protons without or with CD, respectively, and δ1 is the chemical shift of PH protons in the 1:1 complex.

Data set [9] is described as follows: 1H NMR molar ratio titration with αCD (stability constant). In kind it is binding. As to the method:
(§3) ^1H NMR spectra were obtained using a JEOL-A500 spectrometer (Tokyo, Japan) operating at 500 MHz in 5 mm sample tubes at 25 °C using D2O/0.1 M sodium borate (pH meter reading of 9.4) as solvent. The resonance at 4.68 to 4.75 ppm, due to residual solvents (H2O and HOD), was used as an internal reference. Chemical shifts are given as parts per million (ppm), with an accuracy of ±0.001. No external reference was used to avoid possible interactions with the CDs. The ^1H NMR signals of the guests (PB and related compounds) were assigned by 2D ^1H-^1H correlation spectroscopy (COSY), whereas those of the CDs were assigned according to a previous report. The complex stoichiometries were determined by the continuous variation method, where the total concentrations of CD and guest were kept constant at 1.0 × 10^−2 M. In addition, the changes in the chemical shift of CDs and the guest protons in their equimolar systems (5.0 × 10^−3 M) were monitored. […] The stability constant values of the complexes formed by PH were determined from the curves. […]
(§4) The equation was analyzed by the iteration method since the concentration of free CD ([CD]f) is unknown unless K1:1 had been determined beforehand. […] Therefore, by setting [CD]f = [CD]t as a first approximation, Equation (2) was analyzed by a nonlinear least-squares method, and, in turn, [CD]f values were calculated using the obtained apparent K1:1 value. […]

Data set [10] in a line: 1H NMR molar ratio titration with βCD (stability constant). In kind it is binding. The procedure: as §3, §4
The nature of data set [11]: 1H NMR molar ratio titration with γCD (stability constant). In kind it is binding. The procedure:
as §3, §4

Setting [12] is: NMR value (pH 9.4) vs phase solubility value (pH 2.1).

Take `O=C(O)CCCc1ccccc1` [PB, 4-phenylbutyrate]: the “Phase solubility diagram type with αCD” value in data set [1] is “AL-type”. For the same compound, the “Apparent stability constant K αCD” value in [1] (phase solubility, mean ± SD (n = 3)) is 481 ± 26 ^a M^−1. Moreover, in data set [2], the “Apparent stability constant K βCD” value is recorded as 178 ± 23 ^a M^−1 and the “Guest/Host Ratio βCD” value was 1.02 ± 0.05 ^b. Besides, in data set [3], the “Apparent stability constant K γCD” value is recorded as 119 ± 9 ^a M^−1 and the “Guest/Host Ratio γCD” value is 2.14 ± 0.08 ^b. The “Maximum of continuous variation plot, guest/(guest + host) mole fraction, αCD” value in [4] is 0.5.

In the case of `O=C(O)CCCCCc1ccccc1` [PC, 6-phenylcaproic acid], in [5], the “Phase solubility diagram type with αCD” value is recorded as “BS-type”, the “Apparent stability constant K αCD” value is 1185 ± 35 M⁻¹ and the “Guest/Host Ratio αCD” value is 0.55 ± 0.03. In addition, in [6], the “Apparent stability constant K βCD” value came out at 2283 ± 134 M⁻¹ and the “Guest/Host Ratio βCD” value was determined as 1.08 ± 0.01. In data set [7], the “Apparent stability constant K γCD” value amounted to 499 ± 59 M⁻¹ and the “Guest/Host Ratio γCD” value is 2.30 ± 0.03. Also, the “Maximum of continuous variation plot, guest/(guest + host) mole fraction, αCD” value in [8] is listed as 0.35.

Regarding `O=C(O)CCCCCCc1ccccc1` [PH, 7-phenylheptanoic acid], in data set [5], the “Phase solubility diagram type with αCD” value is “BS-type”, the “Apparent stability constant K αCD” value came out at 2500 ± 50 M⁻¹ and the “Guest/Host Ratio αCD” value was 0.44 ± 0.01. In [6], the “Apparent stability constant K βCD” value came to 7458 ± 52 M⁻¹ and the “Guest/Host Ratio βCD” value was 1.02 ± 0.01. In data set [7], the “Apparent stability constant K γCD” value is 1213 ± 18 M⁻¹ and the “Guest/Host Ratio γCD” value was 2.20 ± 0.01. Moreover, the “Reduction of stability constant of αCD complex compared to value at pH 2.1” value in data set [9] (setting [12]) is on record as 20 fold. For the same compound, in data set [9] (determined from protons A and Y, 0.1 M sodium borate/D2O (pH 9.4), 25 °C), the “Stability constant K1:1 of αCD complex from 1H NMR chemical shift change” value was found to be 123 ± 2 M⁻¹. In data set [10] (setting [12]), the “Reduction of stability constant of βCD complex compared to value at pH 2.1” value is given as 3 fold. Further, the “Stability constant K1:1 of βCD complex from 1H NMR chemical shift change” value in data set [10] (determined from protons A and X, 0.1 M sodium borate/D2O (pH 9.4), 25 °C) was 2513 ± 469 M⁻¹. Further, the “Reduction of stability constant of γCD complex compared to value at pH 2.1” value in data set [11] (setting [12]) came out at 3 fold. Further, the “Stability constant K1:1 of γCD complex from 1H NMR chemical shift change” value in data set [11] (determined from protons C and X, 0.1 M sodium borate/D2O (pH 9.4), 25 °C) is 370 ± 6 M⁻¹. In data set [8], the “Maximum of continuous variation plot, guest/(guest + host) mole fraction, αCD” value is reported as 0.35.

On to `O=C(O)CCc1ccccc1` [PP, 3-phenylpropionic acid], for which, in [5], the “Phase solubility diagram type with αCD” value was “AL-type” and the “Apparent stability constant K αCD” value was 226 ± 5 M⁻¹. In addition, the “Apparent stability constant K βCD” value in data set [6] worked out at 74 ± 3 M⁻¹. In data set [7], the “Apparent stability constant K γCD” value was 34 ± 1 M⁻¹.

With `O=C(O)CCCCc1ccccc1` [PV, 5-phenylvaleric acid], in [5], the “Phase solubility diagram type with αCD” value was “AL-type” and the “Apparent stability constant K αCD” value stood at 639 ± 20 M⁻¹. Moreover, in [6], the “Apparent stability constant K βCD” value is 838 ± 52 M⁻¹ and the “Guest/Host Ratio βCD” value amounted to 0.99 ± 0.05. In [7], the “Apparent stability constant K γCD” value amounted to 223 ± 7 M⁻¹ and the “Guest/Host Ratio γCD” value is 2.21 ± 0.03. Moreover, the “Maximum of continuous variation plot, guest/(guest + host) mole fraction, αCD” value in [8] came out at 0.35.

The values are drawn from paper PMC10606765, “Study of the Structural Chemistry of the Inclusion Complexation of 4-Phenylbutyrate and Related Compounds with Cyclodextrins in Solution: Differences in Inclusion Mode with Cavity Size Dependency” (International Journal of Molecular Sciences, 2023).
